Measurements: patent US20180148418A1, “AMIDO-SUBSTITUTED CYCLOHEXANE DERIVATIVES” (Bayer Pharma Aktiengesellschaft, priority 2015, published 2018)

Assays:
[1] = test system: wildtype Wnt signaling cascade; assay: HEK293 TOP assay (Super TopFlash luciferase reporter, Wnt-3a stimulated); assay type: cell-based; settings: Homo sapiens, HEK293, 16 h, HEK293 TOP reporter cells, Wnt3a at EC50, 16 hours
In short: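 HEK293 cells stably carrying Super TopFlash (TOP) run in parallel with FOP cells, 10000/well plated 24 h ahead, stimulated with recombinant human Wnt-3a. Compounds tested 50 μM to 15 nM in 3.16-fold steps in CAFTY buffer pH 7.4 with 2 mM Ca^2+ and 0.01% BSA; luciferase read-out.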

TNKS1 = biological target: T1, TNKS1 (Homo sapiens, UniProt O95271); assay: TNKS1 Assay B (auto-parsylation, [3H]-NAD+ SPA); assay type: biochemical; settings: 6 nM TNKS1, auto-parsylation, over night at room temperature
T1 construct: purchased BPS Bioscience, San Diego, USA 80579 (TNKS1 Histone Ribosylation Assay Kit)
T1 sequence (O95271 1-1327): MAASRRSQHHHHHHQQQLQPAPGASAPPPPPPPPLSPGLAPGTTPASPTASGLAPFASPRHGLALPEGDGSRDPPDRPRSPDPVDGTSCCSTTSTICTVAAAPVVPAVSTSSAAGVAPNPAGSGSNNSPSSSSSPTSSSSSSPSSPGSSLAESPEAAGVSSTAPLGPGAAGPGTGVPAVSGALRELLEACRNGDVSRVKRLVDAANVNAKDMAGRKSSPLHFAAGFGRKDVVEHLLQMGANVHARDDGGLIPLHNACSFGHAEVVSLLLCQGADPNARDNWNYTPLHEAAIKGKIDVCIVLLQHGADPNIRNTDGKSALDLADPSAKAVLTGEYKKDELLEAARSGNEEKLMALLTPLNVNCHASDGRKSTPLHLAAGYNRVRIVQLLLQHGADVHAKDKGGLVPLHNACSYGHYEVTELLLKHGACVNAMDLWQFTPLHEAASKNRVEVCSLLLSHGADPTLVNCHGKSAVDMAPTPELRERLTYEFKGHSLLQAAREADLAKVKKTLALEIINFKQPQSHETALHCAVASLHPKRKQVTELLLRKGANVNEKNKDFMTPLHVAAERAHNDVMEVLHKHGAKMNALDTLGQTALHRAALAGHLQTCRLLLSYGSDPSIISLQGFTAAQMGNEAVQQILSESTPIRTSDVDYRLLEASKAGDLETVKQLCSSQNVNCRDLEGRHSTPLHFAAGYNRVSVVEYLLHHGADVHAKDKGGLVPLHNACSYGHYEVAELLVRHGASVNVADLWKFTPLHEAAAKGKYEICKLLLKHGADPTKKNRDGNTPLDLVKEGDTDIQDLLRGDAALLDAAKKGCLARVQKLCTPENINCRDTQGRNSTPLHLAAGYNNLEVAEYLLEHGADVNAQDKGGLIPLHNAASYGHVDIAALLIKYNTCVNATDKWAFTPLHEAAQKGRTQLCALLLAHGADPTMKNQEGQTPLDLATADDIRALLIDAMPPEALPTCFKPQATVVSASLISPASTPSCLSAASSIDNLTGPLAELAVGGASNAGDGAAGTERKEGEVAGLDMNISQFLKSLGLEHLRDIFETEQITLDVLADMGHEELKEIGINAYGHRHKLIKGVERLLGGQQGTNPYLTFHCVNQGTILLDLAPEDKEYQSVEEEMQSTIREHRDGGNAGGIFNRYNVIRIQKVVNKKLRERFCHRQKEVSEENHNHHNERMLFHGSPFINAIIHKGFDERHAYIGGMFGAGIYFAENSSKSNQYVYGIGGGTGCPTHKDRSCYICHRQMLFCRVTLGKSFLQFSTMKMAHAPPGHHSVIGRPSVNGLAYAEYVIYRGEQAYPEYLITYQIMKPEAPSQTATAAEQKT

Compound	IC50 [1] [nM]	IC50 (TNKS1) [nM]
COCc1cc(C)n2ncc(C(=O)N[C@H]3CC[C@H](C(=O)Nc4c(F)cc(F)cc4Cl)CC3)c2n1 [Example 112, N-{trans-4-[(2-chloro-4,6-difluorophenyl)carbamoyl]cyclohexyl}-5-(methoxymethyl)-7-methylpyrazolo[1,5-a]pyrimidine-3-carboxamide]	190	150
Cc1nc2c(C(=O)N[C@H]3CC[C@H](C(=O)Nc4ccc(F)cc4Cl)CC3)cnn2c2c1CCC2 [Example 113, N-{trans-4-[(2-chloro-4-fluorophenyl)carbamoyl]cyclohexyl}-5-methyl-7,8-dihydro-6H-cyclopenta[e]pyrazolo[1,5-a]pyrimidine-3-carboxamide]	94	110
CC(O)CNc1ccc2ncc(C(=O)N[C@H]3CC[C@H](C(=O)Nc4ccc(F)cc4Cl)CC3)n2n1 (stereo partly drawn) [Example 114, N-{trans-4-[(2-chloro-4-fluorophenyl)carbamoyl]cyclohexyl}-6-[(2-hydroxypropyl)amino]imidazo[1,2-b]pyridazine-3-carboxamide]	1600	860
CNC(=O)c1[nH]cnc1C(=O)NC12CCC(C(=O)Nc3ccc(F)cc3Cl)(CC1)CC2 [Example 115, N^4-{4-[(2-chloro-4-fluorophenyl)carbamoyl]bicyclo[2.2.2]oct-1-yl}-N^5-methyl-1H-imidazole-4,5-dicarboxamide]	180	160
CNC(=O)c1[nH]cnc1C(=O)NC12CCC(C(=O)Nc3c(F)cc(F)cc3Cl)(CC1)CC2 [Example 116, N^4-{4-[(2-chloro-4,6-difluorophenyl)carbamoyl]bicyclo[2.2.2]oct-1-yl}-N^5-methyl-1H-imidazole-4,5-dicarboxamide]	330	580
O=C(NC12CCC(C(=O)Nc3ccc(F)cc3Cl)(CC1)CC2)c1cnn2cccnc12 [Example 117, N-{4-[(2-chloro-4-fluorophenyl)carbamoyl]bicyclo[2.2.2]oct-1-yl}pyrazolo[1,5-a]pyrimidine-3-carboxamide]	220	340
Cc1cc(NC(=O)C23CCC(NC(=O)c4cnn5cccnc45)(CC2)CC3)c(Cl)cc1F [Example 118, N-{4-[(2-chloro-4-fluoro-5-methylphenyl)carbamoyl]bicyclo[2.2.2]oct-1-yl}pyrazolo[1,5-a]pyrimidine-3-carboxamide]	300	89
O=C(NC12CCC(C(=O)Nc3c(F)cc(F)cc3Cl)(CC1)CC2)c1cnn2cccnc12 [Example 119, N-{4-[(2-chloro-4,6-difluorophenyl)carbamoyl]bicyclo[2.2.2]oct-1-yl}pyrazolo[1,5-a]pyrimidine-3-carboxamide]	390	560
O=C(NC12CCC(C(=O)Nc3cnccc3Cl)(CC1)CC2)c1cnn2cccnc12 [Example 120, N-{4-[(4-chloropyridin-3-yl)carbamoyl]bicyclo[2.2.2]oct-1-yl}pyrazolo[1,5-a]pyrimidine-3-carboxamide]	140	210
O=C(NC12CCC(C(=O)Nc3ccc(F)cc3Cl)(CC1)CC2)c1cnc2cccnn12 [Example 121, N-{4-[(2-chloro-4-fluorophenyl)carbamoyl]bicyclo[2.2.2]oct-1-yl}imidazo[1,2-b]pyridazine-3-carboxamide]	30	400
Cc1cc(NC(=O)C23CCC(NC(=O)c4cnc5cccnn45)(CC2)CC3)c(Cl)cc1F [Example 122, N-{4-[(2-chloro-4-fluoro-5-methylphenyl)carbamoyl]bicyclo[2.2.2]oct-1-yl}imidazo[1,2-b]pyridazine-3-carboxamide]	470	240
O=C(NC12CCC(C(=O)Nc3c(F)cc(F)cc3Cl)(CC1)CC2)c1cnc2cccnn12 [Example 123, N-{4-[(2-chloro-4,6-difluorophenyl)carbamoyl]bicyclo[2.2.2]oct-1-yl}imidazo[1,2-b]pyridazine-3-carboxamide]	660	1000
O=C(NC12CCC(C(=O)Nc3cnccc3Cl)(CC1)CC2)c1cnc2cccnn12 [Example 124, N-{4-[(4-chloropyridin-3-yl)carbamoyl]bicyclo[2.2.2]oct-1-yl}imidazo[1,2-b]pyridazine-3-carboxamide]	290	230
Cc1cc(C)n2ncc(C(=O)NC34CCC(C(=O)Nc5ccc(F)cc5Cl)(CC3)CC4)c2n1 [Example 125, N-{4-[(2-chloro-4-fluorophenyl)carbamoyl]bicyclo[2.2.2]oct-1-yl}-5,7-dimethylpyrazolo[1,5-a]pyrimidine-3-carboxamide]	69	120
Cc1cc(C)n2ncc(C(=O)NC34CCC(C(=O)Nc5cc(C)c(F)cc5Cl)(CC3)CC4)c2n1 [Example 126, N-{4-[(2-chloro-4-fluoro-5-methylphenyl)carbamoyl]bicyclo[2.2.2]oct-1-yl}-5,7-dimethylpyrazolo[1,5-a]pyrimidine-3-carboxamide]	190	82
Cc1cc(C)n2ncc(C(=O)NC34CCC(C(=O)Nc5c(F)cc(F)cc5Cl)(CC3)CC4)c2n1 [Example 127, N-{4-[(2-chloro-4,6-difluorophenyl)carbamoyl]bicyclo[2.2.2]oct-1-yl}-5,7-dimethylpyrazolo[1,5-a]pyrimidine-3-carboxamide]	220	320
Cc1cc(C)n2ncc(C(=O)NC34CCC(C(=O)Nc5cnccc5Cl)(CC3)CC4)c2n1 [Example 128, N-{4-[(4-chloropyridin-3-yl)carbamoyl]bicyclo[2.2.2]oct-1-yl}-5,7-dimethylpyrazolo[1,5-a]pyrimidine-3-carboxamide]	240	88
O=C(NCC1CCCO1)c1nc[nH]c1C(=O)N[C@H]1CC[C@H](C(=O)Nc2cc(F)ccc2Cl)CC1 (stereo partly drawn) [Example 129, N^5-{trans-4-[(2-chloro-5-fluorophenyl)carbamoyl]cyclohexyl}-N^4-(tetrahydrofuran-2-ylmethyl)-1H-imidazole-4,5-dicarboxamide]	410	45
O=C(N[C@H]1CC[C@H](C(=O)Nc2cc(F)c(F)cc2Cl)CC1)c1cnn2cccnc12 [Example 130, N-{trans-4-[(2-chloro-4,5-difluorophenyl)carbamoyl]cyclohexyl}pyrazolo[1,5-a]pyrimidine-3-carboxamide]	22	34
O=C(N[C@H]1CC[C@H](C(=O)Nc2cc(F)c(F)cc2Cl)CC1)c1cnc2cccnn12 [Example 132, N-{trans-4-[(2-chloro-4,5-difluorophenyl)carbamoyl]cyclohexyl}imidazo[1,2-b]pyridazine-3-carboxamide]	51	64
O=C(N[C@H]1CC[C@H](C(=O)Nc2c(F)cc(F)cc2Cl)CC1)c1cnc2cccnn12 [Example 133, N-{trans-4-[(2-chloro-4,6-difluorophenyl)carbamoyl]cyclohexyl}imidazo[1,2-b]pyridazine-3-carboxamide]	290	140
Cc1cc(C)n2ncc(C(=O)N[C@H]3CC[C@H](C(=O)Nc4cc(F)c(F)cc4Cl)CC3)c2n1 [Example 134, N-{trans-4-[(2-chloro-4,5-difluorophenyl)carbamoyl]cyclohexyl}-5,7-dimethylpyrazolo[1,5-a]pyrimidine-3-carboxamide]	140	74
Cc1cc(C)n2ncc(C(=O)N[C@H]3CC[C@H](C(=O)Nc4c(F)cc(F)cc4Cl)CC3)c2n1 [Example 135, N-{trans-4-[(2-chloro-4,6-difluorophenyl)carbamoyl]cyclohexyl}-5,7-dimethylpyrazolo[1,5-a]pyrimidine-3-carboxamide]	38	48
